Source: PubChem BioAssay AID212 (DTP/NCI, 2004)
Values joined by “and” are separate entries in the source; they are usually repeats but may differ in a detail not shown here. Equal values may be shown once. Results filed as inconclusive are left out.

Tested on: BDF1 mice, colon carcinoma 38 sc, T/C %
Assay: NCI In Vivo Anticancer Drug Screen. Data for tumor model Colon Carcinoma 38 (subcutaneous) in B6D2F1 (BDF1) mice
Conditions: endpoint: median tumor weight (est.), higher = larger tumour
In short: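 Ratio of survival or tumor size, compound-treated animals relative to vehicle controls, in tumor-bearing mice.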

[1] = dose: 25.0 mg/kg/injection, schedule: Q07DX002 (ip), vehicle: saline with Tween-80
[2] = dose: 50.0 mg/kg/injection, schedule: Q07DX002 (ip), vehicle: saline with Tween-80
[3] = dose: 100.0 mg/kg/injection, schedule: Q07DX002 (ip), vehicle: saline with Tween-80
[4] = dose: 200.0 mg/kg/injection, schedule: Q07DX002 (ip), vehicle: saline with Tween-80
[5] = dose: 400.0 mg/kg/injection, schedule: Q07DX002 (ip), vehicle: saline with Tween-80
[6] = dose: 12.5 mg/kg/injection, schedule: Q07DX002 (ip), vehicle: saline with Tween-80
[7] = dose: 6.25 mg/kg/injection, schedule: Q07DX002 (ip), vehicle: Klucel (hydroxypropylcellulose) (HPC)
[8] = dose: 12.5 mg/kg/injection, schedule: Q07DX002 (ip), vehicle: Klucel (hydroxypropylcellulose) (HPC)
[9] = dose: 25.0 mg/kg/injection, schedule: Q07DX002 (ip), vehicle: Klucel (hydroxypropylcellulose) (HPC)

COC(C(=O)C(O)C(C)O)C1CC2C=C3C=C(OC4CC(OC5CC(O)C(OC)C(C)O5)C(OC(C)=O)C(C)O4)C(C)C(=O)C3=C(O)C2=C(O)C1OC1CC(OC2CC(OC3CC(C)(O)C(O)C(C)O3)C(O)C(C)O2)C(O)C(C)O1 (stereo not given)
T/C (dose: 1.0 mg/kg/injection, schedule: Q07DX002 (ip), vehicle: saline with Tween-80): 121 % of control | T/C (dose: 2.0 mg/kg/injection, schedule: Q07DX002 (ip), vehicle: saline with Tween-80): 150 % of control | T/C (dose: 4.0 mg/kg/injection, schedule: Q07DX002 (ip), vehicle: saline with Tween-80): 112 % of control | T/C (dose: 8.0 mg/kg/injection, schedule: Q07DX002 (ip), vehicle: saline with Tween-80): 114 % of control | T/C (dose: 16.0 mg/kg/injection, schedule: Q07DX002 (ip), vehicle: saline with Tween-80): 111 % of control

N#CCCSC(=S)C1CCCC1=N (stereo not given)
T/C [1]: 107 % of control | T/C [2]: 95 % of control | T/C [3]: 90 % of control | T/C [4]: 99 % of control | T/C [5]: 71 % of control | T/C (dose: 800.0 mg/kg/injection, schedule: Q07DX002 (ip), vehicle: saline with Tween-80): 86 % of control

Cc1ccc2c(c1)N=C(Nc1ccccc1)N=S2(C)=O (stereo not given)
T/C [6]: 76 % of control | T/C [1]: 85 % of control | T/C [2]: 82 % of control | T/C [4]: 105 % of control

CCc1c(CC(=O)O)c2cc(C)ccc2n1Cc1ccc(Cl)cc1
T/C (dose: 3.13 mg/kg/injection, schedule: Q07DX002 (ip), vehicle: Klucel (hydroxypropylcellulose) (HPC)): 107 % of control | T/C [7]: 45 % of control | T/C (dose: 6.25 mg/kg/injection, schedule: Q07DX003 (ip), vehicle: Klucel (hydroxypropylcellulose) (HPC)): 72 % of control | T/C [8]: 76 % of control | T/C (dose: 12.5 mg/kg/injection, schedule: Q07DX003 (ip), vehicle: Klucel (hydroxypropylcellulose) (HPC)): 74 % of control | T/C [9]: 60 % of control | T/C (dose: 25.0 mg/kg/injection, schedule: Q07DX003 (ip), vehicle: Klucel (hydroxypropylcellulose) (HPC)): 97 % of control | T/C (dose: 50.0 mg/kg/injection, schedule: Q07DX002 (ip), vehicle: Klucel (hydroxypropylcellulose) (HPC)): 98 % of control | T/C (dose: 50.0 mg/kg/injection, schedule: Q07DX003 (ip), vehicle: Klucel (hydroxypropylcellulose) (HPC)): 116 % of control | T/C (dose: 100.0 mg/kg/injection, schedule: Q07DX002 (ip), vehicle: Klucel (hydroxypropylcellulose) (HPC)): 159 % of control | T/C (dose: 100.0 mg/kg/injection, schedule: Q07DX003 (ip), vehicle: Klucel (hydroxypropylcellulose) (HPC)): 120 % of control | T/C (dose: 200.0 mg/kg/injection, schedule: Q07DX003 (ip), vehicle: Klucel (hydroxypropylcellulose) (HPC)): 48 % of control

CC1(CO)C(O)CCC2(C)C1CCC1CC3CC12CCC3(O)CO (stereo not given)
T/C [6]: 120 % of control | T/C [1]: 103 % of control | T/C [2]: 100 % of control | T/C [3]: 124 % of control | T/C [4]: 77 % of control | T/C [5]: 89 % of control

CC1c2ccccc2Cn2cc3c(c21)C(=O)c1cccc(OP(=O)(O)OCc2ccccc2)c1C3=O (stereo not given)
T/C (dose: 0.5 mg/kg/injection, schedule: Q01DX012 (ip), vehicle: saline with Tween-80): 62 % of control | T/C (dose: 1.0 mg/kg/injection, schedule: Q01DX012 (ip), vehicle: saline with Tween-80): 73 % of control | T/C (dose: 2.0 mg/kg/injection, schedule: Q01DX012 (ip), vehicle: saline with Tween-80): 23 % of control | T/C (dose: 4.0 mg/kg/injection, schedule: Q01DX012 (ip), vehicle: saline with Tween-80): 28 % of control

C=CS(C=C)=NS(=O)(=O)c1ccc(C)cc1
T/C (dose: 1.56 mg/kg/injection, schedule: Q07DX002 (ip), vehicle: Klucel (hydroxypropylcellulose) (HPC)): 110 % of control | T/C [7]: 110 % of control | T/C [8]: 111 % of control | T/C [9]: 94 % of control

CCC1(O)CC2CN(CCc3c([nH]c4ccccc34)C(C(=O)OC)(c3cc4c(cc3OC)N(C)C3C(O)(C(N)=O)C(O)C5(CC)C=CCN6CCC43C65)C2)C1 (stereo not given) (tested in a mixture with another compound)
T/C (dose: 0.12 mg/kg/injection, schedule: Q07DX002 (ip), vehicle: water): 87 % of control | T/C (dose: 0.5 mg/kg/injection, schedule: Q07DX002 (ip), vehicle: water): 119 % of control and 94 % of control | T/C (dose: 2.0 mg/kg/injection, schedule: Q07DX002 (ip), vehicle: water): 36 % of control and 48 % of control | T/C (dose: 4.0 mg/kg/injection, schedule: Q07DX002 (ip), vehicle: water): 5 % of control and 15 % of control
